Measured values: publication PMC11124870, “Effect of Antioxidants in Medicinal Products on Intestinal Drug Transporters” (Pharmaceutics, 2024)
Like-named read-outs stand apart in the source and are kept apart here.

Key:
[1] = target: T1, OATP2B1 (Homo sapiens, UniProt O94956); assay: Uptake transporter assay, 3H-estrone sulfate uptake in HEK-293-OATP2B1 cells
T1 sequence (O94956 1-709): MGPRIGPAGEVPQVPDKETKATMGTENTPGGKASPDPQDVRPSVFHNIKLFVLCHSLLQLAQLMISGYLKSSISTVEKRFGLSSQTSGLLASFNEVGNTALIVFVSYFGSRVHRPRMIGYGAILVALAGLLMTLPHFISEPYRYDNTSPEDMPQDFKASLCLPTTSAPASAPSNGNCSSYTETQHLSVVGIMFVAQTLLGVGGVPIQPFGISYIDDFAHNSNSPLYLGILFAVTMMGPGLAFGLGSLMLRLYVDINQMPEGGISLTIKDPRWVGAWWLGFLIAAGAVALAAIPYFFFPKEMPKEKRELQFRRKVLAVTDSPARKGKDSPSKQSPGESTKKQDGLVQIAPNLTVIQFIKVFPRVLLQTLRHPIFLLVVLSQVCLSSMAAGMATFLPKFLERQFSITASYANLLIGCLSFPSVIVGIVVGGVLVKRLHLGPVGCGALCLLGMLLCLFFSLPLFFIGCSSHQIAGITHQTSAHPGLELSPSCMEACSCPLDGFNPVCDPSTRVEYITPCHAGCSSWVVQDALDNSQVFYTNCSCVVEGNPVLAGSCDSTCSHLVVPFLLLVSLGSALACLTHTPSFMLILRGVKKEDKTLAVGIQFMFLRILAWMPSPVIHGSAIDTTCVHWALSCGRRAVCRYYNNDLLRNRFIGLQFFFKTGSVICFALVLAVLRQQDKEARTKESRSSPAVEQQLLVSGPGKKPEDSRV
Procedure: The uptake transporter assay was performed as reported previously with minor modifications [15]. A day before the uptake assay, Isoplate 96-well plates were coated with poly-D-lysine in PBS with calcium and magnesium and washed with PBS. […] An assay mixture of ^3H-estrone sulfate, a known inhibitor of OATP2B1, or an antioxidant was prepared and incubated in a 37 °C incubator for 10 min. The cells were washed with ice-cold HBSS three times and incubated with MicroScint fluid on a shaker for 1 h for cell lysis. Radioactivity was measured by liquid scintillation counting with a MicroBeta^2® microplate counter. […] On the day of experiment, cells were washed twice with 0.4 mL of HBSS per well and then pre-incubated for 10–20 min in 0.4 mL of HBSS. […] Uptake of ^3H-valsartan was stopped after 15 min by washing three times with ice-cold HBSS. Cells were lysed in 750 µL of lysis buffer (0.1 N NaOH and 0.1% SDS in double-distilled water) per well while shaking for 60 min. A total of 690 µL of the lysate from each well was then added to 2.5 mL of EcoLite scintillation fluid. The radioactivity was determined on a LS6500 Scintillation Counter (Beckman Coulter). Protein concentration was measured with a Pierce™ BCA protein assay kit. The radioactivity in each well was corrected for protein concentration. All values were determined in triplicate, and the final values are expressed as % uptake relative to negative control (1% DMSO).
Antioxidants were screened at a concentration of 200 μM.

[2] = target: T2, BCRP (Homo sapiens, UniProt Q9UNQ0); assay: Vesicular transport assay, 3H-CCK8 uptake in BCRP membrane vesicles; assay type: biochemical; design: purchased ThermoFisher Scientific GM0008; host or cells: Sf9 membrane vesicles; conditions: for % Uptake of 3H-CCK8 BCRP: antioxidant 200 µM, uptake with DMSO set as 100%, mean ± SD, three replicates, membrane vesicles
T2 sequence (Q9UNQ0 1-655): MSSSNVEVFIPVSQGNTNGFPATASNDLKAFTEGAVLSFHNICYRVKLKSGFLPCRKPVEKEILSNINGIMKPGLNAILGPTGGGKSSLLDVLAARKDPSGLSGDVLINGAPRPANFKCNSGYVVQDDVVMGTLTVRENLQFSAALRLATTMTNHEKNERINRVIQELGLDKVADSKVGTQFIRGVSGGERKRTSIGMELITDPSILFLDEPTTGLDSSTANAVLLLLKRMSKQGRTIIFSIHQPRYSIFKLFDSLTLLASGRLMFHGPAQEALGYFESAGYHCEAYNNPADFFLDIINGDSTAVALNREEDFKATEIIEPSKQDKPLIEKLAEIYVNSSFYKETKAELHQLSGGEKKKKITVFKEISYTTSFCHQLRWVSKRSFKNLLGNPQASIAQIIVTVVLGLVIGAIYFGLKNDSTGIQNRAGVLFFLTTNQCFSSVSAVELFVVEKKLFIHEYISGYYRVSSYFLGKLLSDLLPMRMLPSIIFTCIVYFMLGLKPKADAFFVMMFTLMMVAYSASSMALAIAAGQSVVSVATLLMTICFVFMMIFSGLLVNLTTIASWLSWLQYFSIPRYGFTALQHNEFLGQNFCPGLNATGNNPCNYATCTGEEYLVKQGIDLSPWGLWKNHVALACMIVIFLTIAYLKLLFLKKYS
Procedure: (§1) The vesicular transport assay was performed using Spodoptera frugiperda 9 (Sf9) membrane vesicles overexpressing human P-gp or BCRP, as reported previously with minor modifications. In brief, Isoplate 96-well flat-bottom white plates were preincubated with HBSS containing 0.5 mg/mL BSA on an orbital shaker in a 37 °C incubator at 90 rpm for 60 min followed by washing with HBSS. The assay mixture (75 µL/well) contained a probe substrate and either vehicle control, a known inhibitor of P-gp or BCRP, or an antioxidant, in vesicle uptake buffer (50 mM MOPS-Tris, pH 7.0 + 70 mM KCl + 7.5 mM MgCl2) prewarmed to 37 °C. After addition of the assay mixture, 5 μL/well (5 μg/μL stock concentration of the vesicles) of vesicles overexpressing human P-gp or BCRP was added. Uptake assays were initiated by adding 20 μL of either 25 mM adenosine triphosphate (ATP) or 25 mM adenosine monophosphate (AMP) to a final concentration of 5 mM. Plates were incubated at 37 °C for 20 min with orbital shaking (90 rpm). After 20 min, the uptake was quenched by adding 150 μL of ice-cold wash buffer (40 mM MOPS-Tris, pH 7.0 + 70 mM KCl) to each well, and the mixture was transferred to a 96-well filtration plate. Vacuum was applied, and the vesicles were washed three times with wash buffer. Vesicles were then lysed with 100 µL of MicroScint-20.

[3] = target: T3, P-gp (Homo sapiens, UniProt P08183); assay: Vesicular transport assay, 3H-NMQ uptake in P-gp membrane vesicles; assay type: biochemical; conditions: for % Uptake of 3H-NMQ P-gp: antioxidant 200 µM, uptake with DMSO set as 100%, mean ± SD, three replicates, membrane vesicles
T3 construct: purchased ThermoFisher Scientific GM0015; host or cells: Sf9 membrane vesicles
Procedure: as §1

[4] = Table S1; source not stated; cited from earlier work
[5] = antioxidant 200 µM, uptake with DMSO set as 100%, mean ± SD, three replicates, HEK-293-OATP2B1 cells

T3 sequence (P08183 whole entry): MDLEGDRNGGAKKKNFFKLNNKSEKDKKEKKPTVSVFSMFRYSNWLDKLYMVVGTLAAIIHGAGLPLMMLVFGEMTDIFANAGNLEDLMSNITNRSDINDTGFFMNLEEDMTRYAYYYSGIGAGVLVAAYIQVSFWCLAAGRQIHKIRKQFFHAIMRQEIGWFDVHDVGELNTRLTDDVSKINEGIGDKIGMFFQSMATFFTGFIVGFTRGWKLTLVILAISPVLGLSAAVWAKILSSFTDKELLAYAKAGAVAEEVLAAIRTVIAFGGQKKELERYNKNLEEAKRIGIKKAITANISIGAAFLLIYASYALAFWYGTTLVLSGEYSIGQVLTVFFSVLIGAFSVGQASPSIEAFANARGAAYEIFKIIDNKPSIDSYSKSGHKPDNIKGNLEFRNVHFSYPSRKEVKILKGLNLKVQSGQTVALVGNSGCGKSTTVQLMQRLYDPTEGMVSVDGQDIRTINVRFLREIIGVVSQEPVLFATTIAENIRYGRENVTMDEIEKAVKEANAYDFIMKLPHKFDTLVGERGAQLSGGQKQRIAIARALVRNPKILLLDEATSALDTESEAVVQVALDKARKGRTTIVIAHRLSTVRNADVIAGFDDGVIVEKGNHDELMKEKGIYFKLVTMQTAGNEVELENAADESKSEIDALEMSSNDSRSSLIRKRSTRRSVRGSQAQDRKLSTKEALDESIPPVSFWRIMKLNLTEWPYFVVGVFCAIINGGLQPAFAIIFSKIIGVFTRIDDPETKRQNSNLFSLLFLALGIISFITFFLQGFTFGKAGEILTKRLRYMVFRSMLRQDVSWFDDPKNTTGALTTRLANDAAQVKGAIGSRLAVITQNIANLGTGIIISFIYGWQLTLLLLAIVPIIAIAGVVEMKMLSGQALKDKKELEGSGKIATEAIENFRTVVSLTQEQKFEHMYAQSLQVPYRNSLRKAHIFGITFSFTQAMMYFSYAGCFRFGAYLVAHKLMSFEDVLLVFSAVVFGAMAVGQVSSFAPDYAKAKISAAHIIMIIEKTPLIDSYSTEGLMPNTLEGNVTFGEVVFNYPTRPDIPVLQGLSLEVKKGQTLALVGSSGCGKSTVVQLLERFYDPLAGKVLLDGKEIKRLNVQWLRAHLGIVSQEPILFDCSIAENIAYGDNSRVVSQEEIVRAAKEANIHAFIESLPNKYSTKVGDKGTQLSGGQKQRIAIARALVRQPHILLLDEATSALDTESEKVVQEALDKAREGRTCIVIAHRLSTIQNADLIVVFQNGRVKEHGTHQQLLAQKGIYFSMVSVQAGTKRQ

| Structure (SMILES) | % Uptake of 3H-ES OATP2B1 [1, 5] | % Uptake of 3H-CCK8 BCRP [2] | % Uptake of 3H-NMQ P-gp [3] | LogP [4] | Uptake of 3H-CCK8 in BCRP membrane vesicles (assay validation) ([2]; BSP 200 µM with 5 mM ATP, 37 °C, 20 min) | Uptake of 3H-ES in HEK-293 cells expressing OATP2B1 (assay validation) ([1]; erlotinib 20 µM, 37 °C, 10 min) | inhibition at 20 min, 200 µM ([3]; human, Sf9 membrane vesicles overexpressing human P-gp, pH 7, probe 3H-NMQ, 200 µM, 3H-NMQ) | % Uptake of 3H-ES OATP2B1 [1] |
| --- | --- | --- | --- | --- | --- | --- | --- | --- |
| O=C(O)c1ccc(O)c(O)c1 [3,4-dihydroxybenzoid acid, 3,4-dihydroxybenzoic acid] | 85.4 ± 4.4% | 78.5 ± 6.9% | 118.9 ± 20% | 0.86 | – | – | – | – |
| O=C(O)CC(O)(CC(=O)O)C(=O)O [Anhydrous citric acid] | – | 93.1 ± 6.7% | 92 ± 2.1% | – | – | – | – | – |
| O=C1O[C@H]([C@@H](O)CO)C(O)=C1O [Ascorbic acid] | – | 92.7 ± 5.9% | 113.6 ± 43.3% | -1.85 | – | – | – | – |
| O=C1OC(c2ccc(O)c(S(=O)(=O)O)c2)(c2ccc(O)c(S(=O)(=O)O)c2)c2c(Br)c(Br)c(Br)c(Br)c21 [Bromosulfophthalein, reference compound] | 10.9 ± 8.1% | 0.3 ± 1.2% | 0.0 ± 22% | – | significantly reduced the uptake | – | – | – |
| Cc1cc(C(C)(C)C)c(O)c(C(C)(C)C)c1 [Butylated hydroxytoluene (BH), Butylated hydroxytoluene] | 137.1 ± 34.8% | 102.8 ± 9.2% | 98.1 ± 20.3% | – | – | – | – | – |
| O=C(O)/C=C/c1ccc(O)c(O)c1 [Caffeic acid] | 119.8 ± 19.8% | 75.8 ± 3.7% | 133.8 ± 12% | – | – | – | – | – |
| NCCC(=O)N[C@@H](Cc1cnc[nH]1)C(=O)O [Carnosine] | 119.3 ± 27.6% | 99.7 ± 11.6% | 82.6 ± 44% | -4 | – | – | – | – |
| COC1=C(OC)C(=O)C(C/C=C(\C)CC/C=C(\C)CC/C=C(\C)CC/C=C(\C)CC/C=C(\C)CC/C=C(\C)CC/C=C(\C)CC/C=C(\C)CC/C=C(\C)CCC=C(C)C)=C(C)C1=O [Co-enzyme Q-10] | 116.1 ± 16.0% | 82.7 ± 16.2% | 90.3 ± 16.3% | 10 | – | – | – | – |
| COc1cc(/C=C/C(=O)CC(=O)/C=C/c2ccc(O)c(OC)c2)ccc1O [Curcumin, reference compound] | – | 0.0 ± 1.8% | 0.0 ± 2.8% | – | – | – | – | – |
| Cl.N[C@@H](CS)C(=O)O [Cysteine hydrochloride] | – | 90.0 ± 12.5% | – | – | – | – | – | – |
| O=C([O-])CN(CCN(CC(=O)[O-])CC(=O)O)CC(=O)O.[Na+].[Na+] [EDTA (edetate disodium), edetate disodium] | – | 110.4 ± 24.6% | 69.3 ± 20.5% | – | – | – | – | – |
| C[N+](C)(C)[C@@H](Cc1c[nH]c(=S)[nH]1)C(=O)[O-] [Ergothioneine] | 118.2 ± 30.6% | 112.5 ± 11.2% | 58.2 ± 23.6% | 0.3 | – | – | – | – |
| C#Cc1cccc(Nc2ncnc3cc(OCCOC)c(OCCOC)cc23)c1 [Erlotinib, reference compound] | – | 58.5 ± 3.9% | 63 ± 5% | – | – | significantly inhibited | – | – |
| O=C1O[C@H]([C@H](O)CO)C(O)=C1O [Erythorbic acid] | – | 88.2 ± 7.5% | 81.8 ± 31.4% | -1.88 | – | – | – | – |
| COc1cc(/C=C/C(=O)O)ccc1O [Ferulic acid] | 136.4 ± 20.7% | 91.0 ± 4.7% | 100.4 ± 16.6% | – | – | – | – | – |
| N[C@@H](CCC(=O)N[C@@H](CS)C(=O)NCC(=O)O)C(=O)O [Glutathione] | 107.9 ± 7.8% | 95.9 ± 2.2% | 79.8 ± 15.8% | – | – | – | – | – |
| NCC(=O)O [Glycine] | 125.6 ± 23.0% | – | – | – | – | – | – | – |
| N[C@@H](Cc1c[nH]cn1)C(=O)O [Histidine] | 108.9 ± 4.0% | 92.4 ± 1.6% | 87.6 ± 10.6% | -3.32 | – | – | – | – |
| NCCCC[C@H](N)C(=O)O [Lysine] | 120.3 ± 21.4% | 109.0 ± 20.8% | 32.5 ± 44.3% | -3.05 | – | – | ≥ 50% | – |
| CSCC[C@H](N)C(=O)O [Methionine] | 113.2 ± 15.2% | 94.8 ± 9.4% | 86.7 ± 24.5% | -1.87 | – | – | – | – |
| O=P(O)(O)O [Phosphoric acid] | – | 83.0 ± 18.0% | – | – | – | – | – | – |
| C/C=C/C=C/C(=O)[O-].[K+] [Potassium sorbate] | 98.8 ± 19.8% | 104.8 ± 14.5% | 103.5 ± 28.7% | – | – | – | – | – |
| CCCOC(=O)c1cc(O)c(O)c(O)c1 [Propyl gallate] | 79.3 ± 17.2% | 86.5 ± 2.6% | 149.1 ± 67.6% | – | – | – | – | – |
| Oc1ccc2c(c1)OCO2 [Sesamol] | 103.1 ± 7.2% | 90.3 ± 3.7% | 121.3 ± 35.1% | 1.57 | – | – | – | – |
| O=S([O-])O.[Na+] [Sodium bisulfite] | 90.1 ± 24.5% | 110.4 ± 9.3% | 96.1 ± 30.4% | -1.2 | – | – | – | – |
| O=C(O)C(O)C(O)C(=O)O (stereo not shown) [Tartaric acid] | – | – | – | -0.76 | – | – | – | 101.1 ± 5.8% |
